Reference: the OPERA property sets (Mansouri et al. 2018)

logP | Compound
2.48 | O=C(C=Cc1ccc(O)c(O)c1)NCc1ccccc1
2.96 | CCCCc1ccc(O)c(O)c1
2.72 | O=C(C=Cc1ccc(O)c(O)c1)NCCc1ccccc1
2.71 | CCCCCCNC(=O)c1ccc(O)c(O)c1
2.32 | CCCCCC(O)c1ccc(O)c(O)c1 (stereo unspecified)
3.25 | CCc1ccc2cc(O)c(O)cc2c1
2.07 | COc1ccc(CCNC(=O)C=Cc2ccc(O)c(O)c2)cc1OC
1.67 | O=C(C=Cc1ccc(O)c(O)c1)CCCCCO
2.61 | CCCC(=O)C=Cc1ccc(O)c(O)c1
3.53 | CCCCOC(=O)/C=C/c1ccc(O)c(O)c1
2.3 | COc1ccc(NC(=O)C=Cc2ccc(O)c(O)c2)cc1OC
3.82 | CCCCC=Cc1ccc(O)c(O)c1
2.7 | CCOc1ccc2cc(O)c(O)cc2c1
1.99 | COc1ccc(CNC(=O)C=Cc2ccc(O)c(O)c2)cc1OC
3.37 | CCCCCCNC(=O)C=Cc1ccc(O)c(O)c1
2.72 | CCCCNC(=O)c1ccc2cc(O)c(O)cc2c1
